Results reported in ChEMBL document CHEMBL5260828, “Amphiphilic glycoconjugates as potential anti-cancer chemotherapeutics” (Eur J Med Chem, 2018).
≈ marks a conversion by molar mass, not a printed value. Blank lines part the entries; values can stand above or below the compound they belong to.

Legend:
Assay type in all cases: functional, cell-based
[1] = test system: HCT-116; assay: Cytotoxicity against human HCT-116 cells assessed as cell growth inhibition incubated for 72 hrs by celltiter 96 aqueous cell proliferation assay; settings: HCT-116, 72 h
[2] = test system: Ca9-22; assay: Cytotoxicity against human Ca9-22 cells assessed as cell growth inhibition by MTT colorimetric assay
[3] = test system: HepG2; assay: Cytotoxicity against human HepG2 cells assessed as cell growth inhibition by MTT colorimetric assay
[4] = test system: MDA-MB-231; assay: Cytotoxicity against human MDA-MB-231 cells assessed as cell growth inhibition by MTT colorimetric assay
[5] = test system: Hep 3B2; assay: Cytotoxicity against human Hep3B cells assessed as cell growth inhibition by MTT colorimetric assay
[6] = test system: HeLa; assay: Antiproliferative activity against human HeLa cells assessed as inhibition of cell growth incubated for 24 hrs by MTT assay
[7] = test system: PK9; assay: Cytotoxicity against human PK9 cells assessed as inhibition of cell growth incubated for 72 hrs by CellTiter 96 aqueous one solution assay; settings: PK9, 72 h
[8] = test system: MIA PaCa-2; assay: Cytotoxicity against human MIA PaCa-2 cells assessed as inhibition of cell growth incubated for 72 hrs by CellTiter 96 aqueous one solution assay; settings: MIA PaCa-2, 72 h
[9] = test system: HL-60; assay: Cytotoxicity against human HL-60 cells assessed as inhibition of cell proliferation incubated for 72 hrs by MTT assay; settings: HL-60, 72 h
[10] = test system: HeLa; assay: Cytotoxicity against human HeLa cells assessed as inhibition of cell proliferation incubated for 72 hrs by MTT assay
[11] = test system: AGS; assay: Antiproliferative activity against human AGS cells assessed as inhibition of cell growth incubated for 48 hrs by MTT assay
[12] = test system: HCT-116; assay: Antiproliferative activity against human HCT-116 cells assessed as inhibition of cell growth incubated for 48 hrs by MTT assay
[13] = test system: SF-268; assay: Antiproliferative activity against human SF-268 cells assessed as inhibition of cell growth incubated for 48 hrs by MTT assay
[14] = test system: MCF7; assay: Antiproliferative activity against human MCF7 cells assessed as inhibition of cell growth incubated for 48 hrs by MTT assay
[15] = test system: NCI-H460; assay: Antiproliferative activity against human NCI-H460 cells assessed as inhibition of cell growth incubated for 48 hrs by MTT assay
[16] = test system: HeLa S3; assay: Cytotoxicity against human HeLa S3 cells assessed as inhibition of cell proliferation incubated for 72 hrs by MTT assay; settings: HeLa S3, 72 h
[17] = test system: Lung NSCLC-N6 cell-line; assay: Cytotoxicity against human Lung NSCLC-N6 cell-line by MTT colorimetric assay
[18] = test system: B16; assay: Cytotoxicity against mouse B16 cells; settings: b16
[19] = test system: HeLa S3; assay: Cytotoxicity against human HeLa S3 cells
[20] = test system: P388/ADM; assay: Cytotoxicity against mouse P388/ADM cells
[21] = test system: NCI-H69; assay: Cytotoxicity against human NCI-H69 cells
[22] = test system: P388; assay: Cytotoxicity against mouse P388 cells; settings: p388
[23] = test system: MIA PaCa-2; assay: Cytotoxicity against human MIA PaCa-2 cells assessed as reduction in cell viability incubated for 48 hrs by MTS assay; settings: MIA PaCa-2, time 48 hrs
[24] = test system: MDA-MB-231; assay: Cytotoxicity against human MDA-MB-231 cells assessed as reduction in cell viability incubated for 48 hrs by MTS assay; settings: MDA-MB-231, time 48 hrs
[25] = test system: JIMT-1; assay: Cytotoxicity against human JIMT-1 cells assessed as reduction in cell viability incubated for 48 hrs by MTS assay; settings: JIMT-1, time 48 hrs
[26] = test system: BT-474; assay: Cytotoxicity against human BT-474 cells assessed as reduction in cell viability incubated for 48 hrs by MTS assay; settings: BT-474, time 48 hrs
[27] = test system: DU-145; assay: Cytotoxicity against human DU-145 cells assessed as reduction in cell viability incubated for 48 hrs by MTS assay; settings: DU-145, time 48 hrs
[28] = test system: PC-3; assay: Cytotoxicity against human PC-3 cells assessed as reduction in cell viability incubated for 48 hrs by MTS assay; settings: PC-3, time 48 hrs
[29] = test system: NUGC-3; assay: Cytotoxicity against human NUGC-3 cells assessed as cell growth inhibition incubated for 30 mins by MTT assay; settings: NUGC-3, 0.5 h

Compound: CO[C@@H]1/C=C(\C)C[C@H](/C=C/C#C[C@H]2C[C@@H]2Cl)OC(=O)[C@@H](C)[C@]2(O)C[C@H](O[C@@H]3O[C@@H](C)[C@H](O)[C@@](C)(O)[C@H]3O[C@@H]3O[C@@H](C)[C@H](O)[C@@](C)(O)[C@H]3OC)[C@@H](C)[C@@H](O2)[C@@H]1C
IC50 [1]: 10.2 µM

Compound: CCCCCCCCCCCCOC[C@@H](COC(C)=O)O[C@@H]1OC[C@@H](O)[C@@H](O)[C@@H]1O
IC50 [2]: 9.2 µg/mL (≈ 21.2 µM) | IC50 [3]: 9.2 µg/mL (≈ 21.2 µM) | IC50 [4]: 9.2 µg/mL (≈ 21.2 µM) | IC50 [5]: 9.2 µg/mL (≈ 21.2 µM)

IC50 [6]: > 100 µg/mL
Compound: CCCCCCCCCCCCCCCCCCCCCCCCCCCC(=O)OC[C@H](CC[C@@H]1O[C@H](CO)[C@@H](O)[C@H](O)[C@H]1O)OC(=O)CCCCCCCCCCCCCCCCCCCCCCCCCCC

Compound: CCCCCCCC/C=C\CCCCCCCCNC(=O)[C@H]1[C@@H]2OC(C)(C)O[C@@H]2[C@](C)(CO)N1CCCC
IC50 [7]: 17 µM | IC50 [8]: 3.6 µM

Compound: C/C=C/C/C(C)=C\[C@H]1C/C=C/C=C/C[C@H](C)/C=C(\C)[C@@H](OC)CCC[C@@H](O[C@@H]2O[C@H](CO)[C@@H](O)[C@H](OC)[C@H]2O)CC(=O)O1
IC50 [9]: 0.071 µM | IC50 [10]: 0.19 µM

IC50 [11]: 0.039 µg/mL (≈ 0.0518 µM) | IC50 [12]: 0.039 µg/mL (≈ 0.0518 µM) | IC50 [14]: 0.039 µg/mL (≈ 0.0518 µM) | IC50 [15]: 0.039 µg/mL (≈ 0.0518 µM)
Compound: CC/C=C\C/C=C\C/C=C\CCCCCCCC(=O)OCC(CO[C@@H]1O[C@H](CO)[C@H](O)[C@H](O)[C@H]1O)OC(=O)CCCCCCCCCCCCCCC (stereo partly drawn)
IC50 [13]: 0.039 µg/mL (≈ 0.0518 µM)

Compound: C=C1[C@@H](OC)C/C=C/[C@@H](O[C@@H]2O[C@H](CO)[C@@H](O)[C@H](OC)[C@H]2O)CC(=O)O[C@@H](/C=C(/C)C/C=C/C)C/C=C/C=C/C[C@H](C)[C@@H]1OO
IC50 [16]: > 10 µM

IC50 [11]: 0.039 µg/mL (≈ 0.0503 µM) | IC50 [12]: 0.039 µg/mL (≈ 0.0503 µM) | IC50 [14]: 0.039 µg/mL (≈ 0.0503 µM) | IC50 [15]: 0.039 µg/mL (≈ 0.0503 µM)
Compound: CC/C=C\C/C=C\C/C=C\CCCCCCCC(=O)OCC(CO[C@@H]1O[C@H](CO)[C@H](O)[C@H](O)[C@H]1O)OC(=O)CCCCCCC/C=C\C/C=C\C/C=C\CC (stereo partly drawn)
IC50 [13]: 0.039 µg/mL (≈ 0.0503 µM)

Compound: C/C=C/C/C(C)=C\[C@H]1C/C=C/C=C/C[C@H](C)/C=C(\C)[C@@H](OC)C[C@@H](O)C[C@@H](O[C@@H]2O[C@H](CO)[C@@H](O)[C@H](OC)[C@H]2O)CC(=O)O1
IC50 [16]: 6.5 µM | IC50 [9]: 0.04 µM

Compound: C/C=C/C/C(C)=C/[C@H]1C/C=C/C=C/C[C@H](C)/C=C(\C)[C@@H](OC)C/C=C/[C@@H](O[C@@H]2O[C@H](CO)[C@@H](O)[C@H](OC)[C@H]2O)CC(=O)O1
IC50 [9]: 0.66 µM | IC50 [10]: 3.1 µM

Compound: C/C=C/C/C(C)=C\[C@H]1C/C=C/C=C/C[C@H](C)/C=C(\C)[C@@H](OC)C[C@@H](O)C[C@@H](O)CC(=O)O1
IC50 [16]: 0.039 µM | IC50 [9]: 0.012 µM

Compound: CO[C@@H]1/C=C(\C)C[C@H](/C=C/C#C[C@H]2C[C@@H]2Cl)OC(=O)[C@@H](C)[C@]2(O)C[C@H](O[C@@H]3O[C@@H](C)[C@H](O[C@@H]4O[C@@H](C)[C@H](O)[C@@](C)(O)[C@H]4O)[C@@](C)(O)[C@H]3OC)[C@@H](C)[C@@H](O2)[C@@H]1C
IC50 [17]: 30 µg/mL (≈ 37.4 µM) | IC50 [1]: 2 µM

IC50 [6]: 57 µg/mL (≈ 92.4 µM)
Compound: CCCCCCCCCCCCCC(=O)OCC(O)C[C@@H]1O[C@H](COC(C)=O)[C@H](OC(C)=O)[C@H](OC(C)=O)[C@H]1OC(C)=O (stereo partly drawn)

IC50 [6]: > 100 µg/mL
Compound: CCCCCCCCCCCCCCCCCCCCCCCCCCCC(=O)OC[C@H](CC[C@@H]1O[C@H](CO)[C@H](O)[C@H](O)[C@H]1O)OC(=O)CCCCCCCCCCCCCCCCCCCCCCCCCCC

Compound: C/C=C(\C)C(O[C@@H]1O[C@H](CO)[C@@H](O)[C@H](O)[C@H]1O)C(C)/C=C(C)/C=C/CC(C)(O)/C=C/c1nc(OC)c(OC)c(O)c1C (stereo in doubt; 283)
IC50 [18]: 0.32 µg/mL (≈ 0.539 µM) | IC50 ([19]; Homo sapiens, HeLa S3, read-out: IC50): 0.62 µg/mL (≈ 1.04 µM) | IC50 ([20]; Mus musculus, P388/ADM, read-out: IC50): 4.3 µg/mL (≈ 7.24 µM) | IC50 ([21]; Homo sapiens, NCI-H69, read-out: IC50): 0.47 µg/mL (≈ 0.792 µM) | IC50 [22]: 0.58 µg/mL (≈ 0.977 µM)

Compound: C/C=C(\C)C(O[C@@H]1O[C@H](CO)[C@@H](O)[C@H](O)[C@H]1O)C(C)/C=C(C)/C=C/CC(C)(O)/C=C/c1nc(OC)c(OC)c(O)c1C (stereo in doubt; 284)
IC50 [18]: 0.67 µg/mL (≈ 1.13 µM) | IC50 ([19]; hela s3): 0.98 µg/mL (≈ 1.65 µM) | IC50 ([20]; p388/adm): 4.2 µg/mL (≈ 7.07 µM) | IC50 ([21]; nci-h69): 0.83 µg/mL (≈ 1.4 µM) | IC50 [22]: 2.5 µg/mL (≈ 4.21 µM)

Compound: O=C(O)CCCc1ccc(N(CCCl)CCCl)cc1 [CHLORAMBUCIL]
CC50 [23]: > 150 µM | CC50 [24]: > 150 µM | CC50 [25]: > 150 µM | CC50 [26]: > 150 µM | CC50 [27]: > 150 µM | CC50 [28]: > 150 µM

Compound: CCCCCCCCCCCCCCCCCC(=O)OCC(O)CO (stereo not drawn) [GLYCERYL MONOSTEARATE]
IC50 [29]: 100 µM
